In US8618107B2 (Gilead Connecticut, Inc., priority 2010, dated 2013):
pIC50: −log10 of the molar value.

target: Btk (Homo sapiens (Human), UniProt Q06187); test: standard biochemical Btk Kinase Assay (Example 901); details: Table 1
Sequence (Q06187 whole entry): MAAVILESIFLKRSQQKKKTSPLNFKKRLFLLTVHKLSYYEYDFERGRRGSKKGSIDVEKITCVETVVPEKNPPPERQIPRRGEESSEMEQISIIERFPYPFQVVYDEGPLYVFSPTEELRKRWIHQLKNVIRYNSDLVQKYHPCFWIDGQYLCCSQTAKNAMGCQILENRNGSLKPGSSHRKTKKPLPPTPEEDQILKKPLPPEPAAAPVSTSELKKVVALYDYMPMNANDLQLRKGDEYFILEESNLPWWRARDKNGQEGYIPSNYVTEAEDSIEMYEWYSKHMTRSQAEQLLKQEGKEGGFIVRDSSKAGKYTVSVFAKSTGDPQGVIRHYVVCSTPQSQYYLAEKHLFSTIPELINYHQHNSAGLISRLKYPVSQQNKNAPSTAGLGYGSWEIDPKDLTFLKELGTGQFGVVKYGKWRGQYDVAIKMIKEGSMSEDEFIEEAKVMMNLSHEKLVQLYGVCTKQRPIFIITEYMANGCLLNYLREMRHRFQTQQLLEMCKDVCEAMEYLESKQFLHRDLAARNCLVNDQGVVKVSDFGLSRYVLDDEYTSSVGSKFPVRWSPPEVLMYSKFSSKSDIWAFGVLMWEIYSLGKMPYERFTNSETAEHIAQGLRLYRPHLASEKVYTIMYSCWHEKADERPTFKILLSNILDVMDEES
Excerpt: Determination of IC50 values can be accomplished using conventional techniques known in the art. In general, an IC50 can be determined by measuring the activity of a given enzyme in the presence of a range of concentrations of the inhibitor under study. The experimentally obtained values of enzyme activity then are plotted against the inhibitor concentrations used. […] Analogously, other inhibitory concentrations can be defined through appropriate determinations of activity.

Compound CC(=O)N1CCn2nc(Nc3cc(-c4cccc(N5CCn6c(cc7c6CCCC7)C5=O)c4CO)cn(C)c3=O)cc2C1 [Example 108, 2-(3-(5-(5-acetyl-4,5,6,7-tetrahydropyrazolo[1,5-a]pyrazin-2-ylamino)-1-methyl-6-oxo-1,6-dihydropyridin-3-yl)-2-(hydroxymethyl)phenyl)-3,4,6,7,8,9-hexahydropyrazino[1,2-a]indol-1(2H)-one] has a pIC50 of 8.21.

same assay, conditions: Table 2

In order of falling pIC50:
1. Cc1cc(Nc2cc(-c3cc(F)cc(N4CCn5c(cc6c5CC(C)(C)C6)C4=O)c3CO)cn(C)c2=O)n[nH]1 [Example 276, 10-[5-Fluoro-2-(hydroxymethyl)-3-{1-methyl-5-[(5-methyl-1H-pyrazol-3-yl)amino]-6-oxo-1,6-dihydropyridin-3-yl}phenyl]-4,4-dimethyl-1,10-diazatricyclo[6.4.0.0^2,6]dodeca-2(6),7-dien-9-one]  8.66
2. CN1CCC(c2ccc(Nc3nc(-c4cc(F)cc(N5CCc6c(sc7c6CC(C)(C)C7)C5=O)c4CO)cn(C)c3=O)cc2)CC1 [Example 278, 10-[5-Fluoro-2-(hydroxymethyl)-3-(4-methyl-6-{[4-(1-methylpiperidin-4-yl)phenyl]amino}-5-oxo-4,5-dihydropyrazin-2-yl)phenyl]-4,4-dimethyl-7-thia-10-azatricyclo[6.4.0.0^2,6]dodeca-1(8),2(6)-dien-9-one]  8.59
3. CN1CCC(c2ccc(Nc3nc(-c4cc(F)cc(N5CCn6c(cc7c6CCCC7)C5=O)c4CO)cn(C)c3=O)cc2)CC1 [Example 282, 2-(5-Fluoro-2-(hydroxymethyl)-3-(4-methyl-6-(4-(1-methylpiperidin-4-yl)phenylamino)-5-oxo-4,5-dihydropyrazin-2-yl)phenyl)-3,4,6,7,8,9-hexahydropyrazino[1,2-a]indol-1(2H)-one]  8.40
4. CN1CC(c2ccc(Nc3cc(-c4cc(F)cc(N5CCn6c(cc7c6CC(C)(C)C7)C5=O)c4CO)cn(C)c3=O)nc2)C1 [Example 271, 10-[5-Fluoro-2-(hydroxymethyl)-3-(1-methyl-5-{[5-(1-methylazetidin-3-yl)pyridine-2-yl]amino}-6-oxo-1,6-dihydropyridin-3-yl)phenyl]-4,4-dimethyl-1,10-diazatricyclo[6.4.0.0^2,6]dodeca-2(6),7-dien-9-one]  8.33
5. CN1CCC(c2ccc(Nc3nc(-c4cc(F)cc(N5CCc6c(sc7c6CCCC7)C5=O)c4CO)cn(C)c3=O)cc2)CC1 [Example 281, 5-[5-Fluoro-2-(hydroxymethyl)-3-(4-methyl-6-{[4-(1-methylpiperidin-4-yl)phenyl]amino}-5-oxo-4,5-dihydropyrazin-2-yl)phenyl]-8-thia-5-azatricyclo[7.4.0.0^2,7]trideca-1(9),2(7)-dien-6-one]  8.28
6. Cn1cc(-c2cccc(N3CCn4c(cc5c4CCCC5)C3=O)c2CO)cc(Nc2ccc(N3CCNCC3)cn2)c1=O [Example 301, 2-(2-(Hydroxymethyl)-3-(1-methyl-6-oxo-5-(5-(piperazin-1-yl)pyridin-2-ylamino)-1,6-dihydropyridin-3-yl)phenyl)-3,4,6,7,8,9-hexahydropyrazino[1,2-a]indol-1(2H)-one]  8.21
7. CN1CCN(c2ccc(Nc3cc(-c4cccc(N5CCn6c(cc7c6CCCC7)C5=O)c4CO)nn(C)c3=O)nc2)CC1 [Example 307, 2-(2-(Hydroxymethyl)-3-(1-methyl-5-(5-(4-methylpiperazin-1-yl)pyridin-2-ylamino)-6-oxo-1,6-dihydropyridazin-3-yl)phenyl)-3,4,6,7,8,9-hexahydropyrazino[1,2-a]indol-1(2H)-one]  8.15
8. Cn1cc(-c2cc(F)cc(N3CCn4c(cc5c4CC(C)(C)C5)C3=O)c2CO)cc(Nc2ccc(N3CCN(C4COC4)CC3)cn2)c1=O [Example 304, 10-[5-Fluoro-2-(hydroxymethyl)-3-[1-methyl-5-({5-[4-(oxetan-3-yl)piperazin-1-yl]pyridine-2-yl}amino)-6-oxo-1,6-dihydropyridin-3-yl]phenyl]-4,4-dimethyl-1,10-diazatricyclo[6.4.0.0^2,6]dodeca-2(6),7-dien-9-one]  8.11
9. CN1CCc2cc(Nc3nc(-c4cc(F)cc(N5CCn6c(cc7c6CCCC7)C5=O)c4CO)cn(C)c3=O)ccc2C1 [Example 283, 2-(5-Fluoro-2-(hydroxymethyl)-3-(4-methyl-6-(2-methyl-1,2,3,4-tetrahydroisoquinolin-6-ylamino)-5-oxo-4,5-dihydropyrazin-2-yl)phenyl)-3,4,6,7,8,9-hexahydropyrazino[1,2-a]indol-1(2H)-one]  8.09
10. CN1CC(Oc2ccc(Nc3cc(-c4cc(F)cc(N5CCn6c(cc7c6CCCC7)C5=O)c4CO)cn(C)c3=O)nc2)C1 [Example 293, 2-(5-Fluoro-2-(hydroxymethyl)-3-(1-methyl-5-(5-(1-methylazetidin-3-yloxy)pyridin-2-ylamino)-6-oxo-1,6-dihydropyridin-3-yl)phenyl)-3,4,6,7,8,9-hexahydropyrazino[1,2-a]indol-1(2H)-one]  8.01
11. CCn1nc(Nc2cc(-c3cc(F)cc(N4CCn5c(cc6c5CC(C)(C)C6)C4=O)c3CO)cn(C)c2=O)cc1C [Example 302, 10-(3-{5-[(1-Ethyl-5-methyl-1H-pyrazol-3-yl)amino]-1-methyl-6-oxo-1,6-dihydropyridin-3-yl}-5-fluoro-2-(hydroxymethyl)phenyl)-4,4-dimethyl-1,10-diazatricyclo[6.4.0.0^2,6]dodeca-2(6),7-dien-9-one]  8.00
12. Cn1cc(-c2cc(F)cc(N3CCn4c(cc5c4CC(C)(C)C5)C3=O)c2CO)cc(Nc2ccc3c(n2)CCN(C2COC2)C3)c1=O [Example 292, 10-[5-Fluoro-2-(hydroxymethyl)-3-(1-methyl-5-{[6-(oxetan-3-yl)-5,6,7,8-tetrahydro-1,6-naphthyridin-2-yl]amino}-6-oxo-1,6-dihydropyridin-3-yl)phenyl]-4,4-dimethyl-1,10-diazatricyclo[6.4.0.0^2,6]dodeca-2(6),7-dien-9-one]  7.94
13. CCN1CCN(c2ccc(Nc3cc(-c4cccc(N5CCc6c(cc7n6CCCC7)C5=O)c4CO)cn(C)c3=O)nc2)CC1 [Example 310, 3-{[5-(4-Ethylpiperazin-1-yl)pyridine-2-yl]amino}-5-[2-(hydroxymethyl)-3-{1-oxo-1H,2H,3H,4H,6H,7H,8H,9H-pyrido[3,4-b]indolizin-2-yl}phenyl]-1-methyl-1,2-dihydropyridin-2-one]  7.78
14. Cn1cc(-c2cccc(N3CCc4c(cc5n4CCCC5)C3=O)c2CO)cc(Nc2cc3n(n2)CCOC3)c1=O [Example 309, 5-[2-(Hydroxymethyl)-3-{1-oxo-1H,2H,3H,4H,6H,7H,8H,9H-pyrido[3,4-b]indolizin-2-yl}phenyl]-1-methyl-3-{4H,6H,7H-pyrazolo[3,2-c][1,4]oxazin-2-ylamino}-1,2-dihydropyridin-2-one]  7.78
15. Cn1cc(-c2cccc(N3CCc4c(sc5c4CCCC5)C3=O)c2CO)nc(Nc2ccc(C3CCN(C4COC4)CC3)cc2)c1=O [Example 305, 5-[2-(Hydroxymethyl)-3-[4-methyl-6-({4-[1-(oxetan-3-yl)piperidin-4-yl]phenyl}amino)-5-oxo-4,5-dihydropyrazin-2-yl]phenyl]-8-thia-5-azatricyclo[7.4.0.0^2,7]trideca-1(9),2(7)-dien-6-one]  7.77
